Data from the NIST ThermoML archive (doi:10.1021/je800579j).
± gives the expanded uncertainty stated by the source.

Experiment: refractive index (Na D-line) (dimensionless); xn = mol fraction of the nth substance listed
Conditions: Liquid, Standard Abbe refractometry

Cc1ccc(C)cc1 [1,4-dimethylbenzene] + C1COCCO1
refractive index
Conditions | 288.15 K | 293.15 K | 298.15 K | 303.15 K | 308.15 K | 313.15 K | 318.15 K
x2 = 0 | 1.4985 ± 0.0007 | 1.4959 ± 0.0007 | 1.4933 ± 0.0007 | 1.4907 ± 0.0007 | 1.4881 ± 0.0007 | 1.4855 ± 0.0007 | 1.483 ± 0.0006
x2 = 0.0716 | 1.4937 ± 0.0007 | 1.4911 ± 0.0007 | 1.4884 ± 0.0007 | 1.4858 ± 0.0007 | 1.4831 ± 0.0007 | 1.4805 ± 0.0007 | 1.4778 ± 0.0007
x2 = 0.1445 | 1.4887 ± 0.0007 | 1.4861 ± 0.0007 | 1.4834 ± 0.0007 | 1.4808 ± 0.0007 | 1.4781 ± 0.0007 | 1.4754 ± 0.0007 | 1.4727 ± 0.0007
x2 = 0.2132 | 1.4839 ± 0.0007 | 1.4813 ± 0.0007 | 1.4786 ± 0.0007 | 1.476 ± 0.0007 | 1.4733 ± 0.0007 | 1.4706 ± 0.0007 | 1.468 ± 0.0007
x2 = 0.2871 | 1.4787 ± 0.0007 | 1.4761 ± 0.0007 | 1.4734 ± 0.0007 | 1.4708 ± 0.0007 | 1.4681 ± 0.0007 | 1.4655 ± 0.0007 | 1.4628 ± 0.0007
x2 = 0.3582 | 1.4736 ± 0.0007 | 1.471 ± 0.0007 | 1.4684 ± 0.0007 | 1.4658 ± 0.0007 | 1.4632 ± 0.0007 | 1.4606 ± 0.0007 | 1.458 ± 0.0007
x2 = 0.4358 | 1.468 ± 0.0006 | 1.4655 ± 0.0007 | 1.4629 ± 0.0007 | 1.4604 ± 0.0007 | 1.4578 ± 0.0007 | 1.4552 ± 0.0007 | 1.4526 ± 0.0007
x2 = 0.5042 | 1.4629 ± 0.0006 | 1.4604 ± 0.0006 | 1.4579 ± 0.0006 | 1.4554 ± 0.0006 | 1.4529 ± 0.0007 | 1.4503 ± 0.0007 | 1.4478 ± 0.0007
x2 = 0.5846 | 1.4569 ± 0.0006 | 1.4544 ± 0.0006 | 1.452 ± 0.0006 | 1.4495 ± 0.0006 | 1.447 ± 0.0006 | 1.4445 ± 0.0006 | 1.442 ± 0.0007
x2 = 0.6543 | 1.4516 ± 0.0006 | 1.4492 ± 0.0006 | 1.4467 ± 0.0006 | 1.4443 ± 0.0006 | 1.4418 ± 0.0006 | 1.4394 ± 0.0006 | 1.4369 ± 0.0007
x2 = 0.7249 | 1.4462 ± 0.0006 | 1.4438 ± 0.0006 | 1.4414 ± 0.0006 | 1.439 ± 0.0006 | 1.4365 ± 0.0006 | 1.4341 ± 0.0006 | 1.4316 ± 0.0006
x2 = 0.7923 | 1.441 ± 0.0006 | 1.4386 ± 0.0006 | 1.4362 ± 0.0006 | 1.4338 ± 0.0006 | 1.4314 ± 0.0006 | 1.429 ± 0.0006 | 1.4266 ± 0.0006
x2 = 0.8623 | 1.4355 ± 0.0006 | 1.4332 ± 0.0006 | 1.4309 ± 0.0006 | 1.4286 ± 0.0006 | 1.4262 ± 0.0006 | 1.4238 ± 0.0006 | 1.4214 ± 0.0006
x2 = 0.9311 | 1.4301 ± 0.0006 | 1.4279 ± 0.0006 | 1.4256 ± 0.0006 | 1.4234 ± 0.0006 | 1.4211 ± 0.0006 | 1.4188 ± 0.0006 | 1.4165 ± 0.0006
